Experimental data as given in patent publication US20050119337A1, “Methods of application of Schisandrin B in the preparation of anticancer medications” (priority 2003, published 2005).

Key:
[1] = system: KBV200 cells; assay: Intracellular distribution of daunorubicin and Rh-123, fluorescent microscope; type: cell-based, human; conditions: KBV200, Schisandrin B 5 and 10 μg/ml, 1 hour, FIGS. 10 and 11
Description: To illustrate the effects of Schisandrin B on the intracellular distribution in MDR cancer cells, MDR cell KBV200 and its parental drug sensitive cell line KB were selected for use. […] The respective cultures were incubated at 37° C. for 1 hour, washed with ice-cold PBS, and the cells were observed under fluorescent microscope.

[2] = biological target: T1, P-glycoprotein (Homo sapiens, UniProt P08183); assay: [3H]Azidopine photoaffinity labeling of P-glycoprotein; type: binding; conditions: KBV200 cytoplasmic membranes, 1.0 μM azidopine, FIG. 14
T1 construct: The cell line selected was MDR cancer cell K562/adr and its parental drug sensitive cell K562; endogenous in cells; host or cells: K562/adr (doxorubicin-selected human leukemia MDR cell line)
Description: To illustrate that Schisandrin B physically interacts with P-glycoprotein according to the present disclosure, [^3H]Azidopine Photoaffinity Labeling of P-glycoportein in the presence or absence of Schisandrin B was used. [^3H]Azidopine is a chemical having unique properties that enable it to interact with P-glycoprotein. If Schisandrin B is also able to interact with P-glycoprotein, the binding of P-glycoprotein with [^3H]Azidopine would be reduced in the presence of Schisandrin B.
The cytoplasmic membranes (enriched with P-glycoprotein) of MDR cell KBV200 were prepared according to the methods as described in May GL, et al., Int. J. Cancer 42:728-733(1988) and Hyafil F, et al., Cancer Res. 53:4595-4602(1993). Membranes were incubated with Schisandrin B for 40 minutes in the dark, followed by 1 hour incubation with 1.0 μM [H]azidopine. After UV irradiation for 2 minutes, the photolabeled membranes were subjected to SDS-PAGE on a 7.5% gel, followed by fluorography.

[3] = system: human epidermoid carcinoma MDR cell line KBV200; assay: Reversal of drug resistance of KBV200, MTT assay, 72 h; type: cell-based
Description: (§1) In this embodiment, the IC50 of anticancer drugs in the presence or absence of Schisandrin B toward MDR cells was determined.
(§2) MTT assays were carried out in triplicate against human leukemia MDR cell line K562/adr and human epidermoid carcinoma MDR cell line KBV200. MTT assays as described previously (X. Hu, et al., Chemotherapy 41:296-305 (1995)) were used to determine the cytotoxicity of each anticancer drug in the presence or absence of Schisandrin B or verapmil.
Cells were treated with specific anticancer drugs as set forth therein. […] “SchB” represents cells treated with anticancer drugs in the presence of Schisandrin B (10 μg/ml).

[4] = system: normal human cells (PBMC, fibroblast cells, bone marrow stromal cell D6p4, liver cell HL-7702); assay: Cytotoxicity of Schisandrin B, MTT assay, 48 h; type: cell-based; conditions: 10 and 20 μg/ml, FIG. 2
Description: (§3) To illustrate the cytotoxicity of Schisandrin B according to the present disclosure, cell lines selected for use include cancer cell lines K562, K562/Adr, K562/vcr; primary cultured cells, including human peripheral blood mononuclear cells (PBMC) and human fibroblast cells; noncancer cell lines, including human bone marrow stromal cell D6p4 and human liver cell HL-7702. Cells were cultured in RPMI-1640 medium containing 10% fetal calf serum. The logarithmic growing cells were seeded into a 96 well plate (20,000 cells/well).

[5] = system: MDR cells (K562/Adr, K562/vcr); assay: Cytotoxicity of Schisandrin B, MTT assay, 48 h; type: cell-based; conditions: 10 and 20 μg/ml, FIG. 2
Description: as §3

[6] = system: K562 cells; assay: Cytotoxicity of Schisandrin B, MTT assay, 48 h; type: cell-based; conditions: 10 and 20 μg/ml, FIG. 2
Description: as §3

[7] = biological target: T1, P-glycoprotein; assay: Daunorubicin accumulation, flow cytometry; type: cell-based; conditions: daunorubicin 2 μg/ml, Schisandrin B 10 μg/ml, FIG. 5
Description: (§4) P-glycoprotein functions as a drug pump that unilaterally pumps the anticancer drugs out of MDR cancer cells. Inhibition of P-glycoprotein results in an increase of the intracellular drug concentration within cancer cells. The inhibition of P-glycoprotein is assessed by analyzing the anticancer drug concentration within the test cells in the presence or absence of Schisandrin B. […] Cells were collected at intervals of 15, 30, 60, 90, 120, and 160 minutes after incubation.

[8] = biological target: T1, P-glycoprotein; assay: Intracellular doxorubicin accumulation, flow cytometry; type: cell-based; conditions: doxorubicin 5 μg/ml, Schisandrin B 10 μg/ml, 60-120 minutes, FIG. 3
Description: The cell line selected was MDR cancer cell K562/adr and its parental drug sensitive cell K562. Cells were cultured in RPMI-1640 medium containing 10% fetal calf serum in cell-culture flasks.

[9] = system: K562/adr; assay: Reversal of resistance to doxorubicin (FIG. 1); type: cell-based, human; conditions: in the presence of Schisandrin B
Description: To illustrate a method for reversal of drug resistance by application of Schisandrin B, cell lines K562/adr, K562/vcr (X. Hu et al., Chemotherapy 41:296-305 (1995)), and KBv200 (X. H. Zhang et al., Yao Xue Xue Bao 29:246-251 (1994)) were selected for use because these particular cell lines are characteristic of overexpression of P-glycoprotein. Cells were cultured in RPMI-1640 medium containing 10% fetal calf serum. The test compound Schisandrin B was dissolved in dimethyl sulfoxide (DMSO) (10 mg/ml as stock). The logarithmic growing cells were seeded into a 96 well plate (20,000 cells/well). Specific anticancer drugs (set forth in Table 1) and Schisandrin B in combination were added into the wells containing the select cell lines. Controls for each anticancer drug type without Schisandrin B were also seeded into the 96 well plate. […] Cell viability was assessed by MTT assays as described in X. Hu et al., Chemotherapy 41:296-305 (1995).

[10] = biological target: T1, P-glycoprotein; assay: Rh-123 accumulation, flow cytometry; type: cell-based; conditions: Rh-123 2 μg/ml, Schisandrin B 10 μg/ml, FIG. 6
Description: as §4, with “90,” for “90, 120,”, “120” for “160”, “incubation. […] At least 50,000 cells were analyzed for each sample.” for “incubation.”

[11] = system: KBV200-implanted tumor; assay: In vivo reversal of drug resistance, KBV200-implanted tumor; set-up: species or system Balb/c nude mice; conditions: for MST / T/C: Balb/c nude mice bearing KBV200-implanted tumor; for MST: doxorubicin 5 mg/kg i.v., Schisandrin B 50 mg/kg gastric intubation; for T/C: survival period in the test group / control group x 100
Description: Thirty nine Balb/c nu/nu female mice were inoculated subcutaneously with KBV200 cells (5×10^6 KBV200 cells/each mouse) on day 0. […] Mean body weights were recorded daily. All mice were observed once per day (or more) for mortality and signs of ill health (i.e., weight loss, change in appetite, or behavioral changes). Therapeutic comparisons were made between control and treatment groups by determining the tumor size. Tumor size was monitored approximately every other day by caliper measurements and calculated according to the formula [Tumor weight=(length×width^2)÷2]. The median survival times (MST) and the percent increase in life span (% ILS) were calculated as: % ILS=[(MSTtreatment/MSTcontrol)−1]×100.
“MST” represents median survival time. The survival rate (T/C %) was calculated by following equation: T/C(%)=[Average survival period in the test group/average survival period in the control group]×100. *P<0.05 compared to saline, vehicle, or Schisandrin B alone.

[12] = system: K562/vcr; assay: Reversal of drug resistance, MTT assay, 48 h; type: cell-based; conditions: for increase of sensitivity of K562/vcr to doxorubicin: FIG. 1
Description: To illustrate a method for reversal of drug resistance by application of Schisandrin B, cell lines K562/adr, K562/vcr (X. […] H. […] Cells were cultured in RPMI-1640 medium containing 10% fetal calf serum. […] The logarithmic growing cells were seeded into a 96 well plate (20,000 cells/well). Specific anticancer drugs (set forth in Table 1) and Schisandrin B in combination were added into the wells containing the select cell lines. […] Cell viability was assessed by MTT assays as described in X.

[13] = system: KBV200; assay: Cell cycle distribution and hypodiploid cells, propidium iodide flow cytometry; type: cell-based, human
Description: The test cells were also analyzed by flow cytometry after being subjected to propidium iodide staining.

[14] = system: human leukemia MDR cell line K562/adr; assay: Reversal of drug resistance of K562/adr, MTT assay, 72 h; type: cell-based; conditions: K562/adr
Description: as §1, §2
Cells were treated with specific anticancer drugs as set forth therein. “Ctrl” represents control cells treated with anticancer drugs in the absence of Schisandrin B or verapamil. “SchB” represents cells treated with anticancer drugs in the presence of Schisandrin B (10 μg/ml).

[15] = system: KBV200 cells; assay: DNA fragmentation, agarose electrophoresis; type: cell-based, human; conditions: FIG. 13
Description: The DNA of above cells was also extracted and subjected to agarose electrophoresis.

[16] = system: KB; assay: Apoptosis induced by doxorubicin, Hoechst 33342/propidium iodide staining; type: cell-based
Description: (§5) Cells were collected and stained with fluorescent dyes Hoechst 33342 and propidium iodide. Hoechst 33342 stains the nuclei of cells with the color blue, and propidium iodide exclusively stains dead cells with the color of red. Accordingly, while Hoechst 33342 only stained the living cells blue, the dead cells were stained by both dyes with the colors of yellow, orange or red. The percentage of dead cells was counted under fluorescent microscope.

[17] = system: KBV200; assay: as above; type: cell-based, human; conditions: KBV200, A5 + S10: doxorubicin 5 μg/ml and Schisandrin B 10 μg/ml, 24 hours
Description: as §5

[18] = KBV200, A1: doxorubicin 1 μg/ml
[19] = KBV200, A5: doxorubicin 5 μg/ml
[20] = KBV200, doxorubicin 1 μg/ml and Schisandrin B 10 μg/ml
[21] = KBV200, doxorubicin 5 μg/ml and Schisandrin B 10 μg/ml

T1 sequence (P08183 whole entry): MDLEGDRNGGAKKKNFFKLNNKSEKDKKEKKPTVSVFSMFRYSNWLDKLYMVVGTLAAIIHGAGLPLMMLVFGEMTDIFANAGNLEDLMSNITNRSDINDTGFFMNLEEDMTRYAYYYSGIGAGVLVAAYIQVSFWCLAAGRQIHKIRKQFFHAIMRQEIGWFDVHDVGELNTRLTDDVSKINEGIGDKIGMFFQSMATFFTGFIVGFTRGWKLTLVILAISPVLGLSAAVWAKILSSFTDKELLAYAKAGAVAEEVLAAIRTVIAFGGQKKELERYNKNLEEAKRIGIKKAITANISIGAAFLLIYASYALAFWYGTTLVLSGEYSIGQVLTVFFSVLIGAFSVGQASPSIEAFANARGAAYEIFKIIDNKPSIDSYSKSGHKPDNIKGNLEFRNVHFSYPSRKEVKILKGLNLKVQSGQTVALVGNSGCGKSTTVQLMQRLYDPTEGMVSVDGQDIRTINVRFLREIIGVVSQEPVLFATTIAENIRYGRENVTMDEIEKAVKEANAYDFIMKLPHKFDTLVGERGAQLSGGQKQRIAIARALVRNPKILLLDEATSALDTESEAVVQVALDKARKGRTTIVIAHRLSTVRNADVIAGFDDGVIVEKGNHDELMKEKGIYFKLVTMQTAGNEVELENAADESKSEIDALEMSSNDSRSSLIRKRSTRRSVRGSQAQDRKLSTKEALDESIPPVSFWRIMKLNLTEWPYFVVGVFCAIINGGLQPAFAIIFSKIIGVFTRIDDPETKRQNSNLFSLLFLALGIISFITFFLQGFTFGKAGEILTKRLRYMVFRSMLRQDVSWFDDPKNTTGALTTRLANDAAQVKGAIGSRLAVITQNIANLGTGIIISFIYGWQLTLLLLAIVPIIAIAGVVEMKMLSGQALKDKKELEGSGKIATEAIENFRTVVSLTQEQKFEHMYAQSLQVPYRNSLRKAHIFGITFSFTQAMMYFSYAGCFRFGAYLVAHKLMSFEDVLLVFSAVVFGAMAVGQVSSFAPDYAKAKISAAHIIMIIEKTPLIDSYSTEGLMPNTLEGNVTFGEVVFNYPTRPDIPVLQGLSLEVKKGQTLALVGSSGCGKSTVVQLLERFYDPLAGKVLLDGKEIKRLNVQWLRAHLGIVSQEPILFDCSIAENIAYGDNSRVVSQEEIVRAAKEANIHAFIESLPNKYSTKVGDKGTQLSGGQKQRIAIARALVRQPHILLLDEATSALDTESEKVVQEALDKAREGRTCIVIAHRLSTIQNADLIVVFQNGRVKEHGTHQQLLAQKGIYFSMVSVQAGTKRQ

For `COc1cc2c(c(OC)c1OC)-c1c(cc3c(c1OC)OCO3)C[C@@H](C)[C@@H](C)C2` [Schisandrin B], the “intracellular distribution of daunorubicin and Rh-123 in MDR cancer cells” value [1] was “partially restored”, the “[3H]Azidopine binding with P-glycoprotein” value [2] was “inhibited” and the “potency in reversing vincristine resistance of KBV200 relative to verapamil” value ([3]; Schisandrin B versus verapamil) was “about 5 folds”. The “cytotoxicity toward normal human cells” value [4] was “does not demonstrate cytotoxicity”, the “cytotoxicity toward MDR cells” value [5] was “does not demonstrate cytotoxicity” and the “cytotoxicity toward K562 cells” value [6] was “does demonstrate cytotoxicity”. The “intracellular daunorubicin accumulation in K562/adr” value [7] was “restored intracellular daunorubicin accumulation”, the “intracellular doxorubicin accumulation in K562/adr” value [8] was “restored intracellular doxorubicin accumulation” and the “sensitivity of K562/adr to doxorubicin” value [9] was “greatly increased the sensitivity”. The “intracellular Rh-123 accumulation in KBV200” value [10] was “restored intracellular Rh-123 accumulation”, the MST [11] was 21.2 days and the T/C [11] was 101.9%. The “increase of sensitivity of K562/vcr to doxorubicin” value (“increase of sensitivity of K562/vcr” for short) ([12]; Schisandrin B 1 μg/ml) was “about 5 folds”, the “increase of sensitivity of K562/vcr” value ([12]; Schisandrin B 10 μg/ml) was ~12 folds and the “increase of sensitivity of K562/vcr” value ([12]; Schisandrin B 20 μg/ml) was ~18 folds.

For `COc1cccc2c1C(=O)c1c(O)c3c(c(O)c1C2=O)C[C@@](O)(C(=O)CO)C[C@@H]3O[C@H]1C[C@H](N)[C@H](O)[C@H](C)O1` [Doxorubicin, doxorubicin], the “Cell cycle distribution G0/G1” value [13, 18] was 44.76%, the “Cell cycle distribution G2/M” value [13, 18] was 10.14% and the “Cell cycle distribution S” value [13, 18] was 45.09%. For the same compound, the hypodiploid % [13, 18] was 1.21%, the “Cell cycle distribution G0/G1” value [13, 19] was 48.03% and the “Cell cycle distribution G2/M” value [13, 19] was 9.60%. The “Cell cycle distribution S” value [13, 19] was 42.37%, the hypodiploid % [13, 19] was 7.51% and the “Cell cycle distribution G0/G1” value [13, 20] was 54.04%. The “Cell cycle distribution G2/M” value [13, 20] was 5.66%, the “Cell cycle distribution S” value [13, 20] was 40.30% and the hypodiploid % [13, 20] was 24.10%. For the same compound, the “Cell cycle distribution G0/G1” value [13, 21] was 58.94%, the “Cell cycle distribution G2/M” value [13, 21] was 1.70% and the “Cell cycle distribution S” value [13, 21] was 39.36%. The hypodiploid % [13, 21] was 70.31%, the IC50 ([14]; Homo sapiens, anticancer drug alone, 72 h, read-out: IC50 Control) was 1.42 ± 0.246 µg/mL and the “RF (Schisandrin B)” value ([14]; IC50 in the absence divided by IC50 in the presence of Schisandrin B (10 μg/ml)) was 20.57. The “RF (verapamil)” value ([14]; IC50 in the absence divided by IC50 in the presence of verapamil (6 μg/ml)) was 10.76, the “IC50 Schisandrin B” value ([14]; anticancer drug in the presence of Schisandrin B (10 μg/ml)) was 0.0691 ± 0.0137 µg/mL and the IC50 verapamil ([14]; anticancer drug in the presence of verapamil (6 μg/ml)) was 0.1324 ± 0.0086 µg/mL. For the same compound, the IC50 ([3]; Homo sapiens, anticancer drug alone, KBV200, 72 h, read-out: IC50 Control) was 0.327 ± 0.213 µg/mL, the “RF (verapamil)” value ([3]; IC50 in the absence / IC50 in the presence of verapamil (6 μg/ml), KBV200) was 10.11 and the “IC50 Schisandrin B” value ([3]; anticancer drug in the presence of Schisandrin B (10 μg/ml), KBV200) was 0.0691 ± 0.0137 µg/mL. For the same compound, the IC50 verapamil ([3]; anticancer drug in the presence of verapamil (6 μg/ml), KBV200) was 0.0324 ± 0.0086 µg/mL, the DNA fragmentation ([15]; KBV200, doxorubicin combined with Schisandrin B (10 μg/ml)) was “demonstrated DNA fragmentation” and the DNA fragmentation ([15]; KBV200, doxorubicin in the absence of Schisandrin B) was “did not show the similar DNA fragmentation”. The “% apoptosis” value ([16]; A1: doxorubicin 1 μg/ml) was >90%, the “% apoptosis” value ([16]; A5: doxorubicin 5 μg/ml) was >90% and the “% apoptosis” value [17] was >90%. The “tumor sizes versus control groups” value ([11]; Balb/c nu/nu mice, KBV200 s.c., doxorubicin 5 mg/kg via tail vein, Schisandrin B via gastric intubation, days 11, 14, 18, 21, 25, FIG. 15) was “not significantly different”, the MST [11] was “not significantly prolonged” and the T/C [11] was 111.1%. For the same compound, the IC50 ([12]; Homo sapiens, anticancer drug toward K562/vcr in the absence of Schisandrin B, 48 h, read-out: IC50 Control) was 4.89 ± 0.21 µg/mL, the “RF (Reversal Folds)” value ([12]; IC50 in the absence of Schisandrin B divided by IC50 in the presence of Schisandrin B (10 μg/ml)) was 25.7 and the “IC50 Schisandrin B” value ([12]; anticancer drug toward K562/vcr in the presence of Schisandrin B (10 μg/ml), 48 h) was 0.19 ± 0.01 µg/mL.
